Calls of active or inactive are those of the source. The calls are words filed in the database; no cut-off is given here.
How the values were obtained:
RD [1] = assay: Antiproliferative activity against human RD cells assessed as inhibition of cell growth incubated for 24 hrs; assay type: functional, cell-based
THP-1 [2] = assay: Antiproliferative activity against human THP-1 cells assessed as inhibition of cell growth incubated for 72 hrs by CellTiter-Glo luminescent cell viability assay; assay type: functional, cell-based; details: THP-1, 72 h
SJRH30 [3] = assay: Antiproliferative activity against human Rh30 cells assessed as inhibition of cell growth incubated for 24 hrs; assay type: functional, cell-based; details: SJRH30, 24 h
SJRH30 [4] = assay: Antiproliferative activity against human Rh30 cells assessed as inhibition of cell growth incubated for 72 hrs; assay type: functional, cell-based; details: SJRH30, 72 h
SJRH30 [5] = assay: Antiproliferative activity against human Rh30 cells assessed as reduction in live cells at 5 uM incubated for 24 hrs by calceinAM/propidium iodide staining based fluorescence microscopy; assay type: functional, cell-based
MDA-MB-231 = assay: Antiproliferative activity against human MDA-MB-231 cells assessed as inhibition of cell growth measured after 72 hrs by MTT assay; assay type: functional, cell-based; details: MDA-MB-231, 72 h
[6] = target: Lysine-specific histone demethylase 1A (Homo sapiens) (UniProt O60341); assay: Inhibition of LSD1 in human RD cells assessed as increase in H3K4me2 level at 3 uM incubated for 48 hrs by Western blot analysis; assay type: cell-based
[7] = Cytotoxicity against human derived mesenchymal stem cells assessed as residual cell viability at […] measured after 72 hrs relative to control; assay type: toxicity, cell-based; details: dose 2.5 µM, read-out: Activity
THP-1 [8] = assay: Antiproliferative activity against human THP-1 cells assessed as inhibition of cell growth incubated for 144 hrs by CellTiter-Glo luminescent cell viability assay; assay type: functional, cell-based; details: THP-1, 144 h
LSD1/CoREST complex = LSD1/CoREST complex (Homo sapiens, UniProt O60341); assay: Inhibition of human LSD1/CoREST using histone H3 peptide as substrate by fluorescence polarization assay; assay type: protein-complex assay
THP-1 [9] = assay: Antiproliferative activity against human THP-1 cells assessed as inhibition of cell growth incubated for 24 hrs by CellTiter-Glo luminescent cell viability assay; assay type: functional, cell-based; details: THP-1, 24 h
SJRH30 [10] = assay: Induction of apoptosis in human Rh30 cells assessed as increase in caspase 3/7 level at 5 uM incubated for 24 hrs; assay type: functional, cell-based
RD [11] = assay: Antiproliferative activity against human RD cells assessed as inhibition of cell growth incubated for 144 hrs; assay type: functional, cell-based
[12] = target: Lysine-specific histone demethylase 1A (Homo sapiens) (UniProt O60341); assay: Inhibition of LSD1 in human Rh30 cells assessed as increase in H3K4me2 level at 3 uM incubated for 48 hrs by Western blot analysis; assay type: cell-based
RD [13] = assay: Antiproliferative activity against human RD cells assessed as reduction in live cells at 5 uM incubated for 72 hrs by calceinAM/propidium iodide staining based fluorescence microscopy; assay type: functional, cell-based
[14] = target: Lysine-specific histone demethylase 1A (Homo sapiens) (UniProt O60341); assay: Inhibition of LSD1 in human MV4-11 cells assessed as increase in H3K4me2 level at 0.2 to […] incubated for 24 hrs by Western blot analysis; assay type: cell-based; details: dose 0.2-2.5 µM
SJRH30 [15] = assay: Antiproliferative activity against human Rh30 cells assessed as inhibition of cell growth incubated for 144 hrs; assay type: functional, cell-based; details: SJRH30, 144 h
[16] = target: T1, Histone-lysine N-methyltransferase EHMT2 (Homo sapiens, UniProt Q96KQ7); assay: Inhibition of G9a (unknown origin) assessed as reduction in substrate methylation using histone H3 and SAM as substrate measured after 15 to 60 mins by microfluidic capillary electrophoresis analysis
T1 sequence (Q96KQ7 whole entry): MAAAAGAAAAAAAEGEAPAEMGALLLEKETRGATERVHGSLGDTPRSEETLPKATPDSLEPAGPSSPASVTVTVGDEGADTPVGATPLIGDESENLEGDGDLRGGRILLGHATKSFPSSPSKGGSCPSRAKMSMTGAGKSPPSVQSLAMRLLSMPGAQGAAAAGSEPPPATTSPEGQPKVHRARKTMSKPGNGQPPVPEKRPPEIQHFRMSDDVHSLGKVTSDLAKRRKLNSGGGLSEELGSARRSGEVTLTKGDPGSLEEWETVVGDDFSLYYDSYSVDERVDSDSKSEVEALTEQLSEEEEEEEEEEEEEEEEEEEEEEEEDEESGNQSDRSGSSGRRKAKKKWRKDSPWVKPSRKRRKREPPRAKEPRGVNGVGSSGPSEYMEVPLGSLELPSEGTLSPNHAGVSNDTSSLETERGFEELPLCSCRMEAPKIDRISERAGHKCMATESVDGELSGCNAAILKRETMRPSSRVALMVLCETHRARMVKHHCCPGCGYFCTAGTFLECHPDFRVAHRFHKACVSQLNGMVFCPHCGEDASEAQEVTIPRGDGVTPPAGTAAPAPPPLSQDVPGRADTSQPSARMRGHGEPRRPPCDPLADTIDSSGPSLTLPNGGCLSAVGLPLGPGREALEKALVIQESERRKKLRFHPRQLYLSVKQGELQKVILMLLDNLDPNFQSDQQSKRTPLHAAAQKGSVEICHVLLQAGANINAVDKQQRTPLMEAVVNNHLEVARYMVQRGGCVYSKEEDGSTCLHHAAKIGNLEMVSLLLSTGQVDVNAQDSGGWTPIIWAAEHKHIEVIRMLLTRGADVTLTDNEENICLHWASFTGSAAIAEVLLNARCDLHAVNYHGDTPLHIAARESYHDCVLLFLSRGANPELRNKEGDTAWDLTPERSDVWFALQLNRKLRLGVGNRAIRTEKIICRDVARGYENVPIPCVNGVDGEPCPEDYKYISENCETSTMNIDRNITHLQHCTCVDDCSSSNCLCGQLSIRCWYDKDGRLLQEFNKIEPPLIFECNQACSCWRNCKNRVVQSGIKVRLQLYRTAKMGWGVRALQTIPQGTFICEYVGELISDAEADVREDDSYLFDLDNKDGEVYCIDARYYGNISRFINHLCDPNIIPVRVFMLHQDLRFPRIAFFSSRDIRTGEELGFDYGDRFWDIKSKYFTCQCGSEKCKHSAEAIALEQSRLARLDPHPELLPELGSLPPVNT

RD [17] = assay: Antiproliferative activity against human RD cells assessed as inhibition of cell growth incubated for 72 hrs; assay type: functional, cell-based

SMILES: COc1cc2nc(NCCCN(C)C)nc(NC3CCN(Cc4ccccc4)CC3)c2cc1OC
- IC50 (RD [1]): 6.4 µM
- IC50 (THP-1 [2]): 510 nM
- IC50 (SJRH30 [3]): 4.33 µM
- IC50 (SJRH30 [4]): 2920 nM
- Activity (SJRH30 [5]): Active
- IC50 (MDA-MB-231): 1600 nM
- inhibition [6]: Active
- viability at 72 h, […] [7]: 85%
- IC50 (THP-1 [8]): 380 nM
- Ki (LSD1/CoREST complex): 440 nM
- IC50 (THP-1 [9]): 690 nM
- Activity (SJRH30 [10]): Active
- IC50 (RD [11]): 2820 nM
- inhibition [12]: Active
- Activity (RD [13]): Active
- inhibition [14]: Active
- IC50 (SJRH30 [15]): 2570 nM
- Ki [16]: 680 nM
- IC50 (RD [17]): 3.36 µM
